In article PMC10320005, “In Campylobacter jejuni, a new type of chaperone receives heme from ferrochelatase” (Frontiers in Genetics, 2023):

What was measured:
CgdH1 (Cj0992c) = biological target: T1, CgdH1 (Cj0992c) (Campylobacter jejuni, UniProt Q0P9R0); test: HPLC-MS of porphyrin products; assay type: biochemical; settings: 10 µM copro'gen III, 1 mM SAM, 0.5 mM NADH, E. coli cell extract added, anaerobic, overnight, room temperature; incomplete reaction via harderoporphyrin intermediate
T1 construct: full length (451 residues), C-terminal His-tag (pET-23b), E. coli BL21STAR(DE3)pLysS; Fe-S cluster reconstituted
T1 sequence (Q0P9R0 1-451): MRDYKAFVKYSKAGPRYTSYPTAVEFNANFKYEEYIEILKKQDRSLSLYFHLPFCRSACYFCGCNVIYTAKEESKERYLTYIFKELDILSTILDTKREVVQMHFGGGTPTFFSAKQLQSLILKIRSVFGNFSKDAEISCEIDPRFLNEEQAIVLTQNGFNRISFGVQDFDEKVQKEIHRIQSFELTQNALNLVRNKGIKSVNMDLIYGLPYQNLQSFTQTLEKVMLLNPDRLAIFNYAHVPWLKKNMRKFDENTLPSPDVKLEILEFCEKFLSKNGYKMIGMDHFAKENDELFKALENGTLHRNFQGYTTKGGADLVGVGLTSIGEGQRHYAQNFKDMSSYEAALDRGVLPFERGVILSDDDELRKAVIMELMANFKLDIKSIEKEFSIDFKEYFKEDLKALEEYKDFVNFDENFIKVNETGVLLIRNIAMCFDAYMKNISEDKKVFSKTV

CgdH2 (Cj0363c) = biological target: T2, CgdH2 (Cj0363c) (Campylobacter jejuni, UniProt Q0PBE7); test: UV-visible titration of apo-protein, absorbance difference at […] nm; assay type: binding
T2 construct: gene hemN; full length (448 residues; 447 aa in Discussion), C-terminal His-tag (pET-23b), E. coli BL21STAR(DE3)pLysS; apo-form without Fe-S cluster
T2 sequence (Q0PBE7 1-448): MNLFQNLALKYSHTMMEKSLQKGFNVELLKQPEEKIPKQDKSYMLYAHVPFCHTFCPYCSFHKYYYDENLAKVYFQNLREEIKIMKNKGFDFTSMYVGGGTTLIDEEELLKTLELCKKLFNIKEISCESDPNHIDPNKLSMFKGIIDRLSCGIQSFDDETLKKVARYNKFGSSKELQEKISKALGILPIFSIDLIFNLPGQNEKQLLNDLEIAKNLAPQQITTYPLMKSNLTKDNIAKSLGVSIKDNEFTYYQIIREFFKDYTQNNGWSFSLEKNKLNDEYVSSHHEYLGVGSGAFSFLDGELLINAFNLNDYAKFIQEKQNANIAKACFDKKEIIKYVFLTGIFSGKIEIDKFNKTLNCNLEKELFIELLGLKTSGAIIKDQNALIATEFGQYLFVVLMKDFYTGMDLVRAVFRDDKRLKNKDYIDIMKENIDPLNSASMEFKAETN

PgdH2 (Cj0362) = biological target: T3, PgdH2 (Cj0362) (Campylobacter jejuni, UniProt Q0PBE8); test: fluorescence of protoporphyrin IX ([…] nm) with E. coli membrane fraction versus empty plasmid; assay type: biochemical; settings: 500 nM proto'gen IX, 150 mM NaCl, 20% glycerol, 5 mM DTT, Tris-HCl pH 8, aerobic
T3 construct: expressed from pPR-IBA2 (Strep-tag vector) in E. coli BL21STAR(DE3)pLysS; membrane fraction, not purified
T3 sequence (Q0PBE8 1-150): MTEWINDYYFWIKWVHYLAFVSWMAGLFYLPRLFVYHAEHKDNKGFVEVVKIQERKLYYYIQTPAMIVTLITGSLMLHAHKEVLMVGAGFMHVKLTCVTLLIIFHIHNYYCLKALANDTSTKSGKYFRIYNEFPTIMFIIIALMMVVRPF

PpfC (Cj0503c) = biological target: T4, PpfC (Cj0503c) (Campylobacter jejuni, UniProt Q9PI08); test: ferrochelatase activity, decrease of protoporphyrin IX at […] nm; assay type: biochemical; settings: 10 µM protoporphyrin IX, 20 µM (NH4)2Fe(SO4)2, 5 mM DTT, 150 mM NaCl, 20% glycerol, Tris-HCl pH 8, anaerobic, room temperature
T4 construct: gene hemH; N-terminal Strep-tag (pPR-IBA2), E. coli BL21STAR(DE3)pLysS, solubilised with Triton X-100
T4 sequence (Q9PI08 1-303): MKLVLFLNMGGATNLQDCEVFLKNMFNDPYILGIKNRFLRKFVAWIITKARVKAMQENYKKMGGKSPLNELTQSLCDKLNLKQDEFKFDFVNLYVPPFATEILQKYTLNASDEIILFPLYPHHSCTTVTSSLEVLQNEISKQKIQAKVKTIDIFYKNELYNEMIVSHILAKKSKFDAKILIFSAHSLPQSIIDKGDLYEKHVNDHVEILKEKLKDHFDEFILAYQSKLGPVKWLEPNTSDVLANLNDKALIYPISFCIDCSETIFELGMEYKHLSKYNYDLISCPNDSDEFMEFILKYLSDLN

UroD (Cj1243) = biological target: T5, UroD (Cj1243) (Campylobacter jejuni, UniProt Q9PN54); test: linked assay, UV-visible spectroscopy and HPLC-MS of coproporphyrin III; assay type: biochemical; settings: uro'gen III made in situ from porphobilinogen with D. vulgaris PbgS and UroS; Tris-HCl pH 8, anaerobic, overnight
T5 construct: gene hemE; N-terminal Strep-tag (pPR-IBA2), E. coli BL21STAR(DE3)pLysS
T5 sequence (Q9PN54 1-340): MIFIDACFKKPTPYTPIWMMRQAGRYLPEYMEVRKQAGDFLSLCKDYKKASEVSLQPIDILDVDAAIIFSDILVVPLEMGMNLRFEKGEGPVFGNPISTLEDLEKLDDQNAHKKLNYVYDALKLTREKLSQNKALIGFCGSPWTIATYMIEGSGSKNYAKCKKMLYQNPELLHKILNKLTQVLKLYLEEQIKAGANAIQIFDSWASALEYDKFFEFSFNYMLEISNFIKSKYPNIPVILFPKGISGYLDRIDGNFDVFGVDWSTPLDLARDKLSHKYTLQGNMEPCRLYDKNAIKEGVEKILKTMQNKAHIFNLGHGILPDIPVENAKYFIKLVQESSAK

Q: `Cc1c2[nH]c(c1CCC(=O)O)Cc1[nH]c(c(CCC(=O)O)c1C)Cc1[nH]c(c(CCC(=O)O)c1C)Cc1[nH]c(c(C)c1CCC(=O)O)C2` [copro'gen III] was tested. Which “HPLC-MS of porphyrin products” value (CgdH1 (Cj0992c)) did it give?
A: The value was “The expected final reactional product, protoporphyrin IX (the oxidized form of proto'gen IX), was observed”.

Q: With `C=CC1=C(C)C2=Cc3c(C=C)c(C)c4[n]3[Fe]([Cl])[n]3c(c(C)c(CCC(=O)O)c3=CC3=NC(=C4)C(C)=C3CCC(=O)O)=CC1=N2` [hemin] as the compound, how does the Kd (CgdH2 (Cj0363c)) read?
A: The Kd was 4.9 ± 1 µM.

Q: How did the “fluorescence of protoporphyrin IX (390/630 nm) with E. coli membrane fraction ve” value (PgdH2 (Cj0362)) turn out when `C=Cc1c2[nH]c(c1C)Cc1[nH]c(c(CCC(=O)O)c1C)Cc1[nH]c(c(C)c1CCC(=O)O)Cc1[nH]c(c(C)c1C=C)C2` [proto'gen IX] was run?
A: Its value is “Cells containing Cj0362 exhibited much higher activity for the oxidation of proto'gen IX”.

Q: For `C=CC1=C(C)c2cc3[nH]c(cc4nc(cc5[nH]c(cc1n2)c(C)c5CCC(=O)O)C(CCC(=O)O)=C4C)c(C)c3C=C` [protoporphyrin IX], which “ferrochelatase activity, decrease of protoporphyrin IX at 408 nm” value (PpfC (Cj0503c)) is on record?
A: The value was “C. jejuni Cj0503c exhibits a ferrochelatase specific activity”.

Q: Which “linked assay, UV-visible spectroscopy and HPLC-MS of coproporphyrin III” value (UroD (Cj1243)) does the source give for `O=C(O)CCc1c2[nH]c(c1CC(=O)O)Cc1[nH]c(c(CC(=O)O)c1CCC(=O)O)Cc1[nH]c(c(CC(=O)O)c1CCC(=O)O)Cc1[nH]c(c(CCC(=O)O)c1CC(=O)O)C2` [uro'gen III] here?
A: The value was “confirmed the formation of copro'gen III”.
